{
  "source": "patent US10045978B2",
  "about": "(AB SCIENCE, priority 2010, dated 2018)",
  "key": {"[1]": {"tested_on": "patients with indolent mastocytosis with handicap bearing the D816V c-Kit mutation", "assay": "Example 2 phase 2a study, efficacy", "assay_type": "in vivo, human", "set-up": "mean reduction of FIS score / mean reduction of pruritus score / mean reduction in frequency of flushes / reduction of daily number of stools / reduction of daily number of micturition / AFIRMM score reduction: concentration or dose not given beside the values", "settings": "week 12", "excerpt": "Eligible patients were aged >18 years, had previously documented indolent systemic, smoldering systemic or cutaneous mastocytosis as per the WHO classification with associated disability as the result of mast cell released mediators. Patients had to have a positive D816V c-Kit mutation status, i.e. documented presence of D816V mutation in at least one infiltrated organ including bone marrow or skin. For patients with prior documented presence of D816V mutation in at least one infiltrated organ (bone marrow or skin), no test was performed at the screening visit; however, for those patients without such documentation it was necessary to perform c-Kit molecular analysis prior to randomization. Skin biopsy and optionally (unless patients had no cutaneous lesion) a bone marrow aspirate or biopsy, were performed at baseline to confirm the presence of D816V mutation and to count mast cells in the infiltrated organs. All skin biopsies, bone marrow aspirate or biopsies, performed for this study were sent to the AB Science central laboratory for sequencing and mast cell counting. Patients were classified as having a handicap if after appropriate symptomatic treatments they fulfilled at least one of the following a priori criteria: number of flushes/week ≥7; pruritus score ≥6; number of stools ≥4/day (i.e. diarrhea); micturition frequency ≥8/day (i.e. pollakiuria); Hamilton rating for depression ≥10; Fatigue Impact Scale (FIS) score ≥40; or EORTC quality-of-life questionnaire (QLQ-C30) score ≥60. Patients were excluded if they experienced inadequate organ function defined via blood test levels, or an Eastern Cooperative Oncology Group performance status >2. Other exclusion criteria included: life expectancy <6 months, severe or uncontrolled medical disease, and patients who were pregnant or nursing.\nIn accordance to the AFIRMM study (Hermine O, et al., 2008, PLoS ONE. 3:e2266), evaluation of treatment response was based upon the change of clinical symptoms associated with a patient's handicaps at week 12 relative to baseline. Efficacy was assessed on the symptoms of mastocytosis. Primary efficacy endpoints were treatment effect on the pruritus score, the number of flushes per week, the Hamilton score, and the Fatigue Impact scale."}, "[2]": {"tested_on": "patients with severe systemic mastocytosis", "assay": "Example 5 post-hoc analysis of pooled phase 2 studies", "assay_type": "in vivo, human", "protocol": "A first phase 2 study was conducted in patients with indolent forms of mastocytosis with handicap and not bearing activating point mutations in the phosphotransferase domain of c-Kit such as the main mutation Asp-816-Val. A second phase 2 study was conducted in patients with mastocytosis with handicap and bearing activating point mutations in the phosphotransferase domain of c-Kit such as the main mutation Asp-816-Val.\nIn one scenario, among those systemic mastocytosis patients from these pooled studies, 28 patients met the criteria for severe handicap at baseline, as defined as having at least one handicap selected from pruritus, flushes, fatigue or depression (defined respectively as: pruritus score ≥9, flushes frequency per week ≥8, FIS ≥75, or Hamilton score ≥19) with a total of 53 severe baseline handicaps reported (note that a given patient may present with more than one handicap). Assessment of treatment response on a handicap was defined as a ≥75% improvement from baseline on at least one handicap among pruritus, flushes, fatigue or depression.\nIn an alternative scenario, among those systemic mastocytosis patients from these pooled studies, 4 patients met the criteria for severe handicap at baseline, as defined as having handicaps of both pruritus and flushes (defined respectively as: pruritus score ≥9, and flushes frequency per week ≥8) with a total of 8 severe baseline handicaps reported. Assessment of treatment response on a handicap was defined as a ≥75% improvement from baseline on at least one handicap among pruritus or flushes. Overall, at week 24 there was a response rate of 50.0%."}, "[3]": {"tested_on": "Ba/F3 cells expressing the D816V c-Kit mutation", "settings": "proliferation; cited from earlier work"}, "[4]": {"tested_on": "patients with indolent forms of mastocytosis with handicap", "settings": "in vivo"}, "[5]": {"settings": "patients with this handicap at baseline"}, "[6]": {"settings": "from W8 to W24, listed as Masitinib"}},
  "data": [
    {"smiles": "Cc1ccc(NC(=O)c2ccc(CN3CCN(C)CC3)cc2)cc1Nc1nc(-c2cccnc2)cs1", "note": "[masitinib, 4-(4-methylpiperazin-1-ylmethyl)-N-[4-methyl-3-(4-pyridin-3ylthiazol-2-ylamino)phenyl]benzamide]", "values": [
      {"measurement": "AFIRMM score reduction", "setting": "[1]", "result": 32.0, "unit": "%"},
      {"measurement": "Hamilton score improvement", "setting": "[1]; PP population", "result": 27.0, "unit": "%"},
      {"measurement": "mean reduction in frequency of flushes", "setting": "[1]; PP population", "result": 45.5, "unit": "%"},
      {"measurement": "mean reduction of FIS score", "setting": "[1]; PP population", "result": 51.8, "unit": "%"},
      {"measurement": "mean reduction of pruritus score", "setting": "[1]; PP population", "result": 46.0, "unit": "%"},
      {"measurement": "overall response rate (improvement ≥50%)", "setting": "[1]; PP population (14 of 20 patients)", "result": 70, "unit": "%"},
      {"measurement": "patients remaining stable", "setting": "[1]; PP population (four patients)", "result": 20, "unit": "%"},
      {"measurement": "reduction of daily number of stools", "setting": "[1]; patients with diarrhea at baseline", "result": 41.3, "unit": "%"},
      {"measurement": "reduction of daily number of micturition", "setting": "[1]; patients with pollakiuria at baseline", "result": 30.3, "unit": "%"},
      {"measurement": "Hamilton score improvement", "setting": "[1]; [5]", "result": 44.3, "unit": "%"},
      {"measurement": "mean reduction in frequency of flushes", "setting": "[1]; [5]", "result": 55.3, "unit": "%"},
      {"measurement": "mean reduction of FIS score", "setting": "[1]; [5]", "result": 45.6, "unit": "%"},
      {"measurement": "Overall response ≥75%", "setting": "[2]; Week 12, at least one severe handicap at baseline (28 patients)", "result": 28.3, "unit": "%"},
      {"measurement": "Overall response ≥75%", "setting": "[2]; Week 12, at least one severe handicap at baseline (28 patients), listed as Masitinib", "result": 25.0, "unit": "%"},
      {"measurement": "Overall response ≥75%", "setting": "[2]; Week 24, at least one severe handicap at baseline (28 patients)", "result": 23.5, "unit": "%"},
      {"measurement": "Overall response ≥75%", "setting": "[2]; Week 24, at least one severe handicap at baseline (28 patients), listed as Masitinib", "result": 23.5, "unit": "%"},
      {"measurement": "Overall response ≥75%", "setting": "[2]; Week 24, severe pruritus and flushes at baseline (4 patients, 8 handicaps)", "result": 50.0},
      {"measurement": "Cumulative response rate (≥75%): FIS only", "setting": "[2]; from W8 to W24", "result": 8.0, "unit": "%"},
      {"measurement": "Cumulative response rate (≥75%): Flushes only", "setting": "[2]; from W8 to W24", "result": 52.8, "unit": "%"},
      {"measurement": "Cumulative response rate (≥75%): Flushes or Pruritus", "setting": "[2]; from W8 to W24", "result": "approximately 40%"},
      {"measurement": "Cumulative response rate (≥75%): Hamilton only", "setting": "[2]; from W8 to W24", "result": 16.7, "unit": "%"},
      {"measurement": "Cumulative response rate (≥75%): Hamilton or FIS", "setting": "[2]; from W8 to W24", "result": "~10", "unit": "%"},
      {"measurement": "Cumulative response rate (≥75%): Micturition frequency (pollakiuria) only", "setting": "[2]; from W8 to W24", "result": 1.8, "unit": "%"},
      {"measurement": "Cumulative response rate (≥75%): Overall Response", "setting": "[2]; from W8 to W24", "result": 26.1, "unit": "%"},
      {"measurement": "Cumulative response rate (≥75%): Pruritus only", "setting": "[2]; from W8 to W24", "result": 28.6, "unit": "%"},
      {"measurement": "Cumulative response rate (≥75%): Stool frequency (diarrhea) only", "setting": "[2]; from W8 to W24", "result": 18.4, "unit": "%"},
      {"measurement": "Cumulative response rate (≥75%): Flushes or Pruritus", "setting": "[2]; [6]", "result": 38.8, "unit": "%"},
      {"measurement": "Cumulative response rate (≥75%): Hamilton or FIS", "setting": "[2]; [6]", "result": 10.3, "unit": "%"},
      {"measurement": "IC50", "setting": "[3]", "result": "5 ± 2", "unit": "µM"},
      {"measurement": "deaths during the study", "setting": "[4]", "result": "No deaths"}
    ]}
  ]
}
